For 7 test systems, surviving fraction results are on record in the supplement of paper PMC6045584.

Compound in one test: CC/C(=C(\c1ccc(O)cc1)c1ccc(OCCN(C)C)cc1)c1ccccc1 [AFIMOXIFENE]
The experiment in a line: surviving fraction relative to DMSO-only wells; higher = less growth inhibition. Particulars: exposure time: 5 days. The essentials: (§1)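 Luminescence normalised to the median of DMSO-only wells defines surviving fraction, with viability read by CellTiter-Glo. Signal was recorded after 10 minutes at room temperature, once log-phase tumour cell lines seeded at 250–500 cells per well in 384-well plates had spent 24 hours settling and then five days under continuous exposure to inhibitors at 0.5, 1, 5, 10, 50, 100, 500 and 1000 nM.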

Compound in a further test: Cc1c(N)nc([C@H](CC(N)=O)NC[C@H](N)C(N)=O)nc1C(=O)N[C@H](C(=O)N[C@H](C)[C@@H](O)[C@H](C)C(=O)N[C@H](C(=O)NCCc1nc(-c2nc(C(=O)NCCC[S+](C)C)cs2)cs1)[C@@H](C)O)[C@@H](OC1OC(CO)C(O)C(O)C1OC1OC(CO)C(O)C(OC(N)=O)C1O)c1cnc[nH]1 [BLEOMYCIN]
Described as above. The note with it: exposure time: 5 days. The essentials: as §1

± gives the standard deviation of the averaged measurements.

As to HCC70 BREAST, the surviving fraction amounted to 1.05 ± 0.079 in the test with AFIMOXIFENE (0.5 nM); 1.1 ± 0.027 in the test with AFIMOXIFENE (1 nM); 1.08 ± 0.074 with AFIMOXIFENE (5 nM); 1.06 ± 0.03 with AFIMOXIFENE (10 nM); 1.19 ± 0.091 with AFIMOXIFENE (50 nM); 1.18 ± 0.062 with AFIMOXIFENE (100 nM). Further, the surviving fraction turned out to be 1.04 ± 0.076 in the test with AFIMOXIFENE (500 nM); 1.03 ± 0.071 with AFIMOXIFENE (1000 nM); 0.965 ± 0.055 with BLEOMYCIN (0.5 nM); 1 ± 0.086 with BLEOMYCIN (1 nM); 0.935 ± 0.13 with BLEOMYCIN (5 nM); 0.981 ± 0.026 in the test with BLEOMYCIN (10 nM). For the same test system, the surviving fraction is 0.835 ± 0.052 with BLEOMYCIN (50 nM), 0.746 ± 0.052 with BLEOMYCIN (100 nM), 0.606 ± 0.097 with BLEOMYCIN (500 nM) and 0.47 ± 0.076 with BLEOMYCIN (1000 nM).

For G292 BONE, the surviving fraction was determined as 1.02 ± 0.016 with AFIMOXIFENE (0.5 nM); 1.01 ± 0.011 with AFIMOXIFENE (1 nM); 0.98 ± 0.033 with AFIMOXIFENE (5 nM); 1.02 ± 0.013 with AFIMOXIFENE (10 nM); 0.9545 ± 0.0072 in the test with AFIMOXIFENE (50 nM); 1.015 ± 0.0096 in the test with AFIMOXIFENE (100 nM). Besides, the surviving fraction in the test with AFIMOXIFENE (500 nM) is 0.903 ± 0.036; in the test with AFIMOXIFENE (1000 nM) it was 0.931 ± 0.048; in the test with BLEOMYCIN (0.5 nM), 0.912 ± 0.048; with BLEOMYCIN (1 nM), 0.887 ± 0.0095; in the test with BLEOMYCIN (5 nM), 0.801 ± 0.052; with BLEOMYCIN (10 nM), 0.741 ± 0.067. In addition, the surviving fraction with BLEOMYCIN (50 nM) was 0.553 ± 0.027; with BLEOMYCIN (100 nM), 0.474 ± 0.02; with BLEOMYCIN (500 nM) it was 0.315 ± 0.017; in the test with BLEOMYCIN (1000 nM), 0.276 ± 0.0065.

Regarding HMT3552 BREAST, the surviving fraction with AFIMOXIFENE (0.5 nM) was determined as 1.05 ± 0.062; with AFIMOXIFENE (1 nM), 1.02 ± 0.053; with AFIMOXIFENE (10 nM), 1 ± 0.042; with AFIMOXIFENE (50 nM), 1.15 ± 0.07; with AFIMOXIFENE (100 nM) it was 1.18 ± 0.061; with AFIMOXIFENE (500 nM), 1.18 ± 0.034. Moreover, the surviving fraction with AFIMOXIFENE (1000 nM) came to 1 ± 0.076; with BLEOMYCIN (0.5 nM), 0.873; with BLEOMYCIN (1 nM), 0.943; with BLEOMYCIN (5 nM) it was 0.9; in the test with BLEOMYCIN (10 nM), 0.807; in the test with BLEOMYCIN (50 nM), 0.55. In addition, the surviving fraction with BLEOMYCIN (100 nM) was 0.299; in the test with BLEOMYCIN (500 nM), 0.15; with BLEOMYCIN (1000 nM) it was 0.182.

On to CCK81 LARGE INTESTINE, for which the surviving fraction with AFIMOXIFENE (0.5 nM) came out at 0.822 ± 0.1; in the test with AFIMOXIFENE (1 nM) it was 0.889 ± 0.095; with AFIMOXIFENE (5 nM), 0.866 ± 0.083; with AFIMOXIFENE (10 nM), 0.822 ± 0.09; in the test with AFIMOXIFENE (50 nM), 0.987 ± 0.24; in the test with AFIMOXIFENE (100 nM), 0.749 ± 0.051. Also, the surviving fraction in the test with AFIMOXIFENE (500 nM) is 0.932 ± 0.04; in the test with AFIMOXIFENE (1000 nM), 0.82 ± 0.027.

Take HCC38 BREAST: the surviving fraction in the test with AFIMOXIFENE (0.5 nM) stood at 1.19 ± 0.1; with AFIMOXIFENE (1 nM), 1.1 ± 0.23; with AFIMOXIFENE (5 nM), 1.19 ± 0.19; with AFIMOXIFENE (10 nM), 1.2 ± 0.23; with AFIMOXIFENE (100 nM), 1.13 ± 0.18; with AFIMOXIFENE (500 nM), 0.99 ± 0.24. Besides, the surviving fraction is 0.952 ± 0.08 with AFIMOXIFENE (1000 nM); 0.725 ± 0.19 with BLEOMYCIN (0.5 nM); 0.725 ± 0.085 with BLEOMYCIN (1 nM); 0.793 ± 0.22 with BLEOMYCIN (5 nM); 0.776 ± 0.18 with BLEOMYCIN (10 nM); 0.91 ± 0.23 with BLEOMYCIN (50 nM). Also, the surviving fraction in the test with BLEOMYCIN (100 nM) was found to be 0.781 ± 0.11; in the test with BLEOMYCIN (500 nM) it was 0.697 ± 0.14; with BLEOMYCIN (1000 nM), 0.498 ± 0.046.

HMLE3 BREAST: the surviving fraction with AFIMOXIFENE (0.5 nM) was 1.06 ± 0.032; with AFIMOXIFENE (1 nM), 1.11 ± 0.062; in the test with AFIMOXIFENE (5 nM), 1.2 ± 0.014; with AFIMOXIFENE (10 nM) it was 1.06 ± 0.05; in the test with AFIMOXIFENE (50 nM) it was 1.12 ± 0.06; with AFIMOXIFENE (100 nM), 1.2 ± 0.12. Besides, the surviving fraction was 1.09 ± 0.1 in the test with AFIMOXIFENE (500 nM); 1.13 ± 0.1 with AFIMOXIFENE (1000 nM); 0.873 ± 0.098 in the test with BLEOMYCIN (0.5 nM); 0.892 ± 0.032 in the test with BLEOMYCIN (1 nM); 0.858 ± 0.085 in the test with BLEOMYCIN (5 nM); 0.907 ± 0.046 with BLEOMYCIN (10 nM). The surviving fraction with BLEOMYCIN (50 nM) came out at 0.933 ± 0.044; with BLEOMYCIN (100 nM), 0.967 ± 0.055; in the test with BLEOMYCIN (500 nM) it was 0.956 ± 0.042; in the test with BLEOMYCIN (1000 nM) it was 0.864 ± 0.064.

Take HS578T BREAST: the surviving fraction in the test with AFIMOXIFENE (0.5 nM) was determined as 1.11 ± 0.14; with AFIMOXIFENE (1 nM) it was 0.963 ± 0.32; in the test with AFIMOXIFENE (5 nM), 1.15 ± 0.17; with AFIMOXIFENE (10 nM) it was 1.01 ± 0.1; in the test with AFIMOXIFENE (50 nM) it was 1.07 ± 0.062; in the test with AFIMOXIFENE (100 nM), 1.24 ± 0.11. Further, the surviving fraction came out at 1.19 ± 0.19 with AFIMOXIFENE (500 nM); 1.21 ± 0.15 in the test with AFIMOXIFENE (1000 nM); 0.759 ± 0.12 in the test with BLEOMYCIN (0.5 nM); 0.774 ± 0.11 in the test with BLEOMYCIN (1 nM); 0.842 ± 0.043 with BLEOMYCIN (5 nM); 0.783 ± 0.071 with BLEOMYCIN (10 nM). Besides, the surviving fraction is 0.746 ± 0.074 with BLEOMYCIN (50 nM), 0.596 ± 0.1 with BLEOMYCIN (100 nM), 0.364 ± 0.021 with BLEOMYCIN (500 nM) and 0.359 ± 0.033 with BLEOMYCIN (1000 nM).
